Measurements published in patent publication US20250114357A1, “BIFUNCTIONAL PROTAC AND MOLECULAR GLUE COMPOUNDS AND METHODS OF USE THEREOF” (Biolexis Therapeutics, Inc., priority 2023, published 2025).

Target: T1, CDK9/CycT1 (Homo sapiens, UniProt P50750)
T1 construct: purchased SignalChem
Assay: ADP-Glo Kinase Assay
Type: biochemical
Conditions: Table 1; assay not given
Experimental: ADP-Glo assay kit is purchased from Promega and the CDK9/CycT1 protein and PDKtide substrate are purchased from SignalChem. Compounds of Structure (I) are dosed in 10-dose IC50 mode in duplicate with 3-fold serial dilution starting at 100 μM. The reaction is started by pre-incubating 4 μL of protein (20 nM), 2 μL of substrate (100 μM), and 2 μL of serial diluted drug in 1× assay buffer (50 mM HEPES, 3 mM MgCl2, 3 mM MnCl2, and 1 mM DTT) for 30 minutes. After pre-incubating, 4 μL of ATP (1 μM) is added to each well and incubated for an additional 90 minutes. The ADP-Glo Reagent (10 μL) and Kinase Detection Reagent (20 μL) are added to each well and incubated as recommended by Promega. The reaction is quantified by measuring luminescence and the IC50 is calculated using GraphPad Prism software.

T1 sequence (P50750 whole entry): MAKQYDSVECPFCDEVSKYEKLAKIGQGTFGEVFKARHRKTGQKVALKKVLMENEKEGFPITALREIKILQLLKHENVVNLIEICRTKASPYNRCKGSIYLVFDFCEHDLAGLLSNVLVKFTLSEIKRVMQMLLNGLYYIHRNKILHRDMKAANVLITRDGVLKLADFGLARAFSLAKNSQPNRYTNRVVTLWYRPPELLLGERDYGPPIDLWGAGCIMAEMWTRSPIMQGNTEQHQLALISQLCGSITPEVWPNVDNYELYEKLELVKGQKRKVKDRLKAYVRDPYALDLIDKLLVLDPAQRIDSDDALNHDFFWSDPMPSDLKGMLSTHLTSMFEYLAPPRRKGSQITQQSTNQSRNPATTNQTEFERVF
T1 sequence (O60563 whole entry partner): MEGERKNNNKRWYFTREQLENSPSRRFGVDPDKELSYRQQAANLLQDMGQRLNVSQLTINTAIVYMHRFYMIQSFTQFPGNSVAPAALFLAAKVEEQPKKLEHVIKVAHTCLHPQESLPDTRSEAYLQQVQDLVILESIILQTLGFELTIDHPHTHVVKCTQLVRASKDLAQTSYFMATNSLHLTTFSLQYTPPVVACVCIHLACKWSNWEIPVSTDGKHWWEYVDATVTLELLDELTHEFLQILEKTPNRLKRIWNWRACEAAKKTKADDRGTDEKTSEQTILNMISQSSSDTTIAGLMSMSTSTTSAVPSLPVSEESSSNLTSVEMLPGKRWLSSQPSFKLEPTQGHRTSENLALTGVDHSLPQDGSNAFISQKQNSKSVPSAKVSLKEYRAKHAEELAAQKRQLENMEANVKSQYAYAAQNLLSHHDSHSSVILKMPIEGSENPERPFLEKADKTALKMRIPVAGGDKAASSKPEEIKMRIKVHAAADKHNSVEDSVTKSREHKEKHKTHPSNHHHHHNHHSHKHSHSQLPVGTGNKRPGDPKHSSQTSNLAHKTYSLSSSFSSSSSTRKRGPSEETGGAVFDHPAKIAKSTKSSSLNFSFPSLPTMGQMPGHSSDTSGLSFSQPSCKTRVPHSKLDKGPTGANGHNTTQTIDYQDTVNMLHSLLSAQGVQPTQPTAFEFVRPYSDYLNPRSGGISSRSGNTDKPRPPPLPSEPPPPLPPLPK

Row | SMILES | IC50
1 | CC(C)c1c2cc(-c3ccnc(N[C@H]4CC[C@H](NCCCCCc5cccc6c5CN(C5CCC(=O)NC5=O)C6=O)C4)n3)ccc2nn1C (stereo partly drawn) [Compound I-1, 3-(4-(5-(((1S,3S)-3-((4-(3-isopropyl-2-methyl-2H-indazol-5-yl)pyrimidin-2-yl)amino)cyclopentyl)amino)pentyl)-1-oxoisoindolin-2-yl)piperidine-2,6-dione] | 5 to 1000 nM
2 | CC(C)c1c2cc(-c3ccnc(N[C@H]4CC[C@H](NCc5ccc(-c6ccccn6)cc5)C4)n3)cc(F)c2nn1C [Compound I-12, (1S,3S)-N^1-(4-(7-fluoro-3-isopropyl-2-methyl-2H-indazol-5-yl)pyrimidin-2-yl)-N^3-(4-(pyridin-2-yl)benzyl)cyclopentane-1,3-diamine] | 5 to 1000 nM
3 | CC(C)c1c2cc(-c3ccnc(N[C@H]4CC[C@H](NCc5cccc6c5C(=O)N(C5CCC(=O)NC5=O)C6=O)C4)n3)ccc2nn1C (stereo partly drawn) [Compound I-7, 2-(2,6-dioxopiperidin-3-yl)-4-((((1S,3S)-3-((4-(3-isopropyl-2-methyl-2H-indazol-5-yl)pyrimidin-2-yl)amino)cyclopentyl)amino)methyl)isoindoline-1,3-dione] | 5 to 1000 nM
4 | CC(C)c1c2cc(-c3ccnc(N[C@H]4CC[C@H](NCc5ccc(-c6ccccn6)cc5)C4)n3)ccc2nn1C [Compound I-11, (1S,3S)-N^1-(4-(3-isopropyl-2-methyl-2H-indazol-5-yl)pyrimidin-2-yl)-N^3-(4-(pyridin-2-yl)benzyl)cyclopentane-1,3-diamine] | 5 to 1000 nM
5 | CC(C)c1c2cc(-c3ccnc(N[C@H]4CC[C@H](NC(=O)N5CCN(CCCCCc6cccc7c6CN(C6CCC(=O)NC6=O)C7=O)CC5)C4)n3)ccc2nn1C (stereo partly drawn) [Compound I-4, 4-(5-(2-(2,6-dioxopiperidin-3-yl)-1-oxoisoindolin-4-yl)pentyl)-N-((1S,3S)-3-((4-(3-isopropyl-2-methyl-2H-indazol-5-yl)pyrimidin-2-yl)amino)cyclopentyl)piperazine-1-carboxamide] | ≤ 5 nM
6 | CC(C)c1c2cc(-c3ccnc(N[C@H]4CC[C@H](NC(=O)N5CCN(CCCCCc6cccc7c6C(=O)N(C6CCC(=O)NC6=O)C7=O)CC5)C4)n3)ccc2nn1C (stereo partly drawn) [Compound I-3, 4-(5-(2-(2,6-dioxopiperidin-3-yl)-1,3-dioxoisoindolin-4-yl)pentyl)-N-((1S,3S)-3-((4-(3-isopropyl-2-methyl-2H-indazol-5-yl)pyrimidin-2-yl)amino)cyclopentyl)piperazine-1-carboxamide] | ≤ 5 nM
7 | CC(C)c1c2cc(-c3ccnc(N[C@H]4CC[C@H](NCCCCCc5cccc6c5C(=O)N(C5CCC(=O)NC5=O)C6=O)C4)n3)ccc2nn1C (stereo partly drawn) [Compound I-2, 2-(2,6-dioxopiperidin-3-yl)-4-(5-(((1S,3S)-3-((4-(3-isopropyl-2-methyl-2H-indazol-5-yl)pyrimidin-2-yl)amino)cyclopentyl)amino)pentyl)isoindoline-1,3-dione] | 5 to 1000 nM
8 | CC(C)c1c2cc(-c3ccnc(N[C@H]4CC[C@H](NCc5cccc6c5CN(C5CCC(=O)NC5=O)C6=O)C4)n3)cc(F)c2nn1C (stereo partly drawn) [Compound I-10, 3-(4-((((1S,3S)-3-((4-(7-fluoro-3-isopropyl-2-methyl-2H-indazol-5-yl)pyrimidin-2-yl)amino)cyclopentyl)amino)methyl)-1-oxoisoindolin-2-yl)piperidine-2,6-dione] | ≤ 5 nM
9 | CC(C)c1c2cc(-c3ccnc(N[C@H]4CC[C@H](NCc5cccc6c5C(=O)N(C5CCC(=O)NC5=O)C6=O)C4)n3)cc(F)c2nn1C (stereo partly drawn) [Compound I-9, 2-(2,6-dioxopiperidin-3-yl)-4-((((1S,3S)-3-((4-(7-fluoro-3-isopropyl-2-methyl-2H-indazol-5-yl)pyrimidin-2-yl)amino)cyclopentyl)amino)methyl)isoindoline-1,3-dione] | 5 to 1000 nM
10 | CC(C)c1c2cc(-c3ccnc(N[C@H]4CC[C@H](NC(=O)N5CCN(CCCCCc6ccc7c(c6)C(=O)N(C6CCC(=O)NC6=O)C7=O)CC5)C4)n3)cc(F)c2nn1C (stereo partly drawn) [Compound I-5, 4-(5-(2-(2,6-dioxopiperidin-3-yl)-1,3-dioxoisoindolin-5-yl)pentyl)-N-((1S,3S)-3-((4-(7-fluoro-3-isopropyl-2-methyl-2H-indazol-5-yl)pyrimidin-2-yl)amino)cyclopentyl)piperazine-1-carboxamide] | ≤ 5 nM
11 | CC(C)c1c2cc(-c3ccnc(N[C@H]4CC[C@H](NC(=O)N5CCN(CCCCCc6ccc7c(c6)CN(C6CCC(=O)NC6=O)C7=O)CC5)C4)n3)cc(F)c2nn1C (stereo partly drawn) [Compound I-6, 4-(5-(2-(2,6-dioxopiperidin-3-yl)-1-oxoisoindolin-5-yl)pentyl)-N-((1S,3S)-3-((4-(7-fluoro-3-isopropyl-2-methyl-2H-indazol-5-yl)pyrimidin-2-yl)amino)cyclopentyl)piperazine-1-carboxamide] | ≤ 5 nM
12 | CC(C)c1c2cc(-c3ccnc(N[C@H]4CC[C@H](NCc5cccc6c5CN(C5CCC(=O)NC5=O)C6=O)C4)n3)ccc2nn1C (stereo partly drawn) [Compound I-8, 3-(4-((((1S,3S)-3-((4-(3-isopropyl-2-methyl-2H-indazol-5-yl)pyrimidin-2-yl)amino)cyclopentyl)amino)methyl)-1-oxoisoindolin-2-yl)piperidine-2,6-dione] | ≤ 5 nM
